Where two headings read alike, the source gives them in different places.
Legend:
[1] = tested on: hepatitis B virus surface antigen (HBs); test: Hepatitis-vaccine enhancing activity (adjuvant activity): anti-HBs IgG in mouse serum by ELISA; assay type: in vivo, female CDF1 mice
Method: A compound of the present invention was dissolved in lipidmicrosphere (1 mg/ml). On the other hand, a solution of hepatitis B virus surface antigen (HBs) in physiological saline was prepared (50 μg/ml). The above solutions in equal amounts were mixed to prepare a test solution. A control solution was prepared by the exclusion of the compound of the present invention from said test solution. A mixture of a suspension of aluminium hydroxide gel in physiological saline (1 mg/ml) and said hepatitis vaccine preparation in equal amounts was prepared as another control solution. The test solution (0.2 ml) was intraperitoneally administered to each mouse in one group consisting of seven female CDF1 mice.
Blood samples were collected from the fundus ocluli vein of each mouse every week after the administration and then centrifuged to obtain serums. Three weeks after the administration, 0.2 ml of the test liquid was intraperitoneally administered again to each mouse for secondary stimulation. Then blood collecting was conducted every week to obtain serums after the application of the secondary stimulation, in the same manner as that described above.
The amount of the IgG antibodies against the hepatitis B virus surface antigens (HBs) in the serums thus obtained was determined with an ELISA method.

[2] = tested on: influenza HA vaccine (B/Nagasaki/1/87 strain); assay type: in vivo, female CDF1 mice
[3] = tested on: L-1210 mouse leukemia cells; test: Activation of macrophages (growth inhibition of tumor cells by intraperitoneal macrophages of treated mice, MTT assay); assay type: cell-based; conditions: macrophages taken 3 days after i.p. 0.2 ml of 500 μg/ml, macrophage:L-1210 20:1, 72 hours
Method: A compound of the present invention was dissolved in lipidmicrosphere to obtain a solution in a concentration of 500μg/ml, and 0.2 ml of such solution was intraperitoneally administered to each mouse in one group consisting of seven female CDF1 mice. Intraperitoneal macrophages obtained three days after the administration and L-1210 mouse leukemia cells were mixed in the ratio of cell numbers of 20:1, respectively. Two hundred μl of the mixture was placed in each well of one sheet of 96 well microtiter plate. After 72 hours, the increase of the cell number in each well was determined by a MTT assay method. The ratio of the cell number for the mixture of the L-1210 cells and the macrophage relative to the cell number for the L-1210 cells only(growth inhibitory ratio) was determined, and the results are shown in Table 3.

[4] = Experiment 1, 1 W after i.p. administration, 5000-fold dilution, compound in lipidmicrosphere + HBs
[5] = Experiment 1, 2 W, 5000-fold dilution
[6] = Experiment 1, 3 W, 5000-fold dilution
[7] = Experiment 1, 4 W (after secondary stimulation at 3 weeks), 5000-fold dilution
[8] = Experiment 1, 5 W (after secondary stimulation at 3 weeks), 5000-fold dilution
[9] = Experiment 1, 1 W after i.p. administration, 5000-fold dilution, compound in lipidmicrosphere + HA vaccine
[10] = Experiment 2, 1 W, 2000-fold dilution
[11] = Experiment 2, 2 W, 2000-fold dilution
[12] = Experiment 2, 3 W, 2000-fold dilution
[13] = Experiment 2, 4 W (after secondary stimulation at 3 weeks), 2000-fold dilution
[14] = Experiment 2, 5 W (after secondary stimulation at 3 weeks), 2000-fold dilution
[15] = Experiment 2, 1 W, 8000-fold dilution
[16] = Experiment 2, 2 W, 8000-fold dilution
[17] = Experiment 2, 3 W, 8000-fold dilution
[18] = Experiment 2, 4 W (after secondary stimulation at 3 weeks), 8000-fold dilution
[19] = Experiment 2, 5 W (after secondary stimulation at 3 weeks), 8000-fold dilution

SMILES | Anti-HBs IgG antibody level in serum (ELISA absorbance at 415 nm) [1, 4] | Anti-HBs IgG antibody level in serum (ELISA absorbance at 415 nm) [1, 5] | Anti-HBs IgG antibody level in serum (ELISA absorbance at 415 nm) [1, 6] | Anti-HBs IgG antibody level in serum (ELISA absorbance at 415 nm) [1, 7] | Anti-HBs IgG antibody level in serum (ELISA absorbance at 415 nm) [1, 8] | Anti HA serum antigen value (average value ± S.D.) [2, 9] | Anti HA serum antigen value (average value ± S.D.) [2, 5] | Anti HA serum antigen value (average value ± S.D.) [2, 6] | Anti HA serum antigen value (average value ± S.D.) [2, 7] | Anti HA serum antigen value (average value ± S.D.) [2, 8] | Anti-HBs IgG antibody level in serum (ELISA absorbance at 415 nm) [1, 10] | Anti-HBs IgG antibody level in serum (ELISA absorbance at 415 nm) [1, 11] | Anti-HBs IgG antibody level in serum (ELISA absorbance at 415 nm) [1, 12] | Anti-HBs IgG antibody level in serum (ELISA absorbance at 415 nm) [1, 13] | Anti-HBs IgG antibody level in serum (ELISA absorbance at 415 nm) [1, 14] | Anti HA serum antigen value (average value ± S.D.) [2, 15] | Anti HA serum antigen value (average value ± S.D.) [2, 16] | Anti HA serum antigen value (average value ± S.D.) [2, 17] | Anti HA serum antigen value (average value ± S.D.) [2, 18] | Anti HA serum antigen value (average value ± S.D.) [2, 19] | further results
CCCCCCCCCCCCCCCCCC(=O)OC[C@H]1O[C@@H](SC(=O)C(CCCCCCCCCCCCCC)CCCCCCCCCCCCCC)[C@H](NC(C)=O)[C@@H](O[C@H](C)C(=O)N[C@@H](C)C(=O)N[C@H](CCC(=O)OC)C(N)=O)[C@@H]1O [Example 10, N-[2-0-{2-Acetamido-2,3-dideoxy-6-0-octadecanoyl-1-S-(2-tetradecylhexadecanoyl)-1-thio-β-D-glucopyranos-3-yl}-D-lactoyl]-L-alanyl-D-isoglutamine methylester] | 0 O.D 415 nm | 0.061 ± 0.002 O.D 415 nm | 0.114 ± 0.003 O.D 415 nm | 0.778 ± 0.024 O.D 415 nm | 0.878 ± 0.009 O.D 415 nm | 0.005 ± 0.001 O.D 415 nm | 0.153 ± 0.003 O.D 415 nm | 0.280 ± 0.000 O.D 415 nm | 1.149 ± 0.018 O.D 415 nm | 1.203 ± 0.014 O.D 415 nm | – | – | – | – | – | – | – | – | – | – | Growth inhibitory ratio of L-1210 mouse leukemia cells [3]: 76.6%
CCCCCCCCCCCCCCC(CCCCCCCCCCCCCC)C(=O)S[C@@H]1O[C@H](CO)[C@@H](O)[C@H](O[C@H](C)C(=O)N[C@@H](C)C(=O)N[C@H](CCC(=O)OC)C(N)=O)[C@H]1NC(C)=O [Example 2] | 0 O.D 415 nm | 0.023 ± 0.000 O.D 415 nm | 0.076 ± 0.001 O.D 415 nm | 0.975 ± 0.008 O.D 415 nm | 0.930 ± 0.004 O.D 415 nm | 0.003 ± 0.001 O.D 415 nm | 0.172 ± 0.004 O.D 415 nm | 0.420 ± 0.005 O.D 415 nm | 0.447 ± 0.029 O.D 415 nm | 1.418 ± 0.035 O.D 415 nm | – | – | – | – | – | – | – | – | – | – | Growth inhibitory ratio of L-1210 mouse leukemia cells [3]: 41.3%
CCCCCCCCCCCCCC(=O)O[C@H](CCCCCCCCCCC)CC(=O)S[C@@H]1O[C@H](CO)[C@@H](O)[C@H](O[C@H](C)C(=O)N[C@@H](C)C(=O)N[C@H](CCC(=O)OC)C(N)=O)[C@H]1NC(C)=O [Example 4, N-[2-0-{2-Acetamido-2,3-dideoxy-1-S-[[3R)-3-tetradecanoyloxytetradecanoyl)-1-thio-β-D-glucopyranos-3-yl}-D-lactoyl]-L-alanyl-D-isoglutamine methylester] | 0 O.D 415 nm | 0.073 ± 0.001 O.D 415 nm | 0.111 ± 0.007 O.D 415 nm | 0.848 ± 0.009 O.D 415 nm | 0.935 ± 0.022 O.D 415 nm | 0.004 ± 0.001 O.D 415 nm | 0.215 ± 0.001 O.D 415 nm | 0.381 ± 0.004 O.D 415 nm | 1.204 ± 0.012 O.D 415 nm | 1.150 ± 0.016 O.D 415 nm | – | – | – | – | – | – | – | – | – | – | Growth inhibitory ratio of L-1210 mouse leukemia cells [3]: 45.2%
CCCCCCCCCCCCCCCCCC(=O)O[C@H](CCCCCCCCCCC)CC(=O)O[C@H]1O[C@H](CO)[C@@H](O)[C@H](O[C@H](C)C(=O)N[C@@H](C)C(=O)N[C@H](CCC(=O)OC)C(N)=O)[C@H]1NC(C)=O [Example 21, N-[2-0-{2-Acetamido-2,3-dideoxy-1-0-((3R)-3-octadecanoyloxytetradecanoyl)-α-D-glucopyranos-3-yl}-D-lactoyl]-L-alanyl-D-isoglutamine methylester] | – | – | – | – | – | – | – | – | – | – | 0.006 ± 0.004 O.D 415 nm | 0.038 ± 0.000 O.D 415 nm | 0.058 ± 0.007 O.D 415 nm | 0.517 ± 0.006 O.D 415 nm | 0.498 ± 0.011 O.D 415 nm | 0 O.D 415 nm | 0.060 ± 0.001 O.D 415 nm | 0.097 ± 0.002 O.D 415 nm | 0.748 ± 0.003 O.D 415 nm | 0.758 ± 0.012 O.D 415 nm | –
CCCCCCCCCCCCCCCCCC(=O)OC[C@H]1O[C@H](OC(=O)C[C@@H](CCCCCCCCCCC)OC(=O)CCCCCCCCCCCCCCC)[C@H](NC(C)=O)[C@@H](O[C@H](C)C(=O)N[C@@H](C)C(=O)N[C@H](CCC(=O)OC)C(N)=O)[C@@H]1O [Example 18, N-[2-0-{2-Acetamido-2,3-dideoxy-6-0octadecanoyl-1-0-((3R)-3-hexadecanoyloxytetradecanoyl)-α-D-glucopyranos-3-yl}-D-lactoyl]-L-alanyl-D-isoglutamine methylester] | – | – | – | – | – | – | – | – | – | – | 0 O.D 415 nm | 0.035 ± 0.007 O.D 415 nm | 0.050 ± 0.004 O.D 415 nm | 0.481 ± 0.006 O.D 415 nm | 0.375 ± 0.008 O.D 415 nm | 0 O.D 415 nm | 0.052 ± 0.004 O.D 415 nm | 0.075 ± 0.001 O.D 415 nm | 0.370 ± 0.005 O.D 415 nm | 0.360 ± 0.001 O.D 415 nm | –
CCCCCCCCCCCCCC(=O)O[C@H](CCCCCCCCCCC)CC(=O)O[C@H]1O[C@H](CO)[C@@H](O)[C@H](O[C@H](C)C(=O)N[C@@H](C)C(=O)N[C@H](CCC(=O)OC)C(N)=O)[C@H]1NC(C)=O [Example 25, N-[2-0-{2-Acetamido-2,3-dideoxy-1-0-((3R)-3-tetradecanoyloxytetradecanoyl}-α-D-glucopyranos-3-yl}-D-lactoyl]-L-alanyl-D-isoglutamine methylester] | – | – | – | – | – | – | – | – | – | – | 0.004 ± 0.002 O.D 415 nm | 0.021 ± 0.001 O.D 415 nm | 0.031 ± 0.004 O.D 415 nm | 0.402 ± 0.011 O.D 415 nm | 0.434 ± 0.021 O.D 415 nm | 0.009 ± 0.001 O.D 415 nm | 0.109 ± 0.002 O.D 415 nm | 0.149 ± 0.004 O.D 415 nm | 0.623 ± 0.019 O.D 415 nm | 0.719 ± 0.021 O.D 415 nm | –
CCCCCCCCCCCCCCCCCC(=O)OC[C@H]1O[C@@H](SC(=O)C[C@@H](CCCCCCCCCCC)OC(=O)CCCCCCCCCCCCCCCCC)[C@H](NC(C)=O)[C@@H](O[C@H](C)C(=O)N[C@@H](C)C(=O)N[C@H](CCC(=O)O)C(N)=O)[C@@H]1O [Example 24, N-[2-0-{2-Acetamido-2,3-dideoxy-6-0-octadecanoyl-1-S-((3R)-3-octadecanoyloxytetradecanoyl)-1-thio-β-D-glucopyranos-3-yl}-D-lactoyl]-L-alanyl-D-isoglutamine] | – | – | – | – | – | – | – | – | – | – | 0.007 ± 0.001 O.D 415 nm | 0.034 ± 0.001 O.D 415 nm | 0.050 ± 0.000 O.D 415 nm | 0.579 ± 0.007 O.D 415 nm | 0.513 ± 0.011 O.D 415 nm | 0.006 ± 0.001 O.D 415 nm | 0.085 ± 0.005 O.D 415 nm | 0.113 ± 0.007 O.D 415 nm | 0.771 ± 0.003 O.D 415 nm | 0.791 ± 0.004 O.D 415 nm | –
